Experimental data published in patent US9669054B2, “pH buffered bioactive glass, and its preparation process and use” (CHANGZHOU BIO-SHENG TECHNOLOGY CO., LTD., priority 2011, dated 2017).

Tests used:
Type in all cases: in vivo
[1] = system: IL-1β-induced recurrence of acetic-acid induced chronic gastric ulcers; test: Prevention of IL-1β-induced recurrence of acetic-acid induced chronic gastric ulcers in rats; conditions: 10 mg/kg/d intragastric for 7 days before IL-1β
Procedure: In this study and experiment, we evaluated the preventive effect of the tested drug (namely, the bioactive glass) on the recurrence of chronic gastric ulcers by adopting the rat model of IL-1β-induced recurrence of acetic-acid induced chronic gastric ulcer, and using omeprazole as the control.
The model of acetic-acid induced chronic gastric ulcer was first copied here: After fasting for 24 hours, the rats were anesthetized and disinfected in a conventional way, and then was cut from the xiphoid down along the medioventral line to about 2 cm, so as to remove the stomach from the enterocoelia; 5 μl of 100% glacial acetic acid was injected by using a microsyringe into a position close to the muscular layer below the anterior wall serosa of the gastric antrum; when a translucent white spot with a diameter of about 3 mm appeared, the stomach was given back to the enterocoelia, and was enveloped in omentum majus; then, peritoneum, muscular layer and skin were sutured in this order. 90 days after the injection of acetic acid, a model of gastric ulcer recurrence was copied by intraperitoneal injection of 1 μg/kg of IL-1β according to the method described in “Role of neutrophils in a rat model of gastric ulcer recurrence caused by interleukin-1 beta”, T. Watanabe, T. Arakawa, T. Fukuda, K. Higuchi, and K. Kobayashi, Am J Pathol, 1997, 150:971-979 . […]

[2] = system: mouse stress-induced gastric ulcers; test: Comparative experiment on inhibition of stress-induced gastric ulcers versus representative drugs; conditions: mice, intragastric, stress in water 15 hours
Procedure: The mice were divided into four groups, to which deionized water (the solvent control group), and three kinds of Weibeisheng with pH 7, 8 and 9 at a dose of 1 g/kg were respectively intragastrically administrated. Two hours later, the mice were subjected to stress in water at 21±1° C. for 15 hours, and were administered again two hours before the end of the stress. Then the animals were killed and autopsy was performed. […]
Two hours later, the mice were subjected to stress in water at 21±1° C. for 15 hours (the drug was administered to the Weibeisheng group again two hours before the end of stress). […] After the ulcer index of each group was scored, the inhibition effect of each drug on mouse stress-induced gastric ulcers (namely, the maximum inhibition rate Emax) was calculated.
The ratios used in these two Experiment Examples were determined according to the weight of the mouse and the amount of intragastric administration.

[3] = system: acetic-acid induced chronic gastric ulcers; test: Treatment of acetic-acid induced chronic gastric ulcers in rats
Procedure: After fasting for 24 hours, the rats were anesthetized and disinfected in a conventional way, and then was cut from the xiphoid down along the medioventral line to about 2 cm, so as to remove the stomach from the enterocoelia; 5 μl of 100% glacial acetic acid was injected by using a microsyringe into a position close to the muscular layer below the anterior wall serosa of the gastric antrum; when a translucent white spot with a diameter of about 3 mm appeared, the stomach was given back to the enterocoelia, and was enveloped in omentum majus; then, peritoneum, muscular layer and skin were sutured in this order.
Each drug was divided into 5 groups according to the administration method described above, namely, a model group and four groups with different doses of drugs. Each group of the drugs was administered to 6 to 8 […]. At the third day after the surgery, the treatment started by intragastrically administering drugs to the rats once a day for 7 days, wherein normal saline was administered in the same volume to the rats in the model group instead. […] The following indices were measured:
(1) ulcer index: the longest diameter in the length direction of an ulcer area and the longest diameter in the width direction perpendicular to the longest diameter in the length direction of the ulcer area were measured by a vernier caliper, and the product of the above two diameters is the ulcer index.
(2) ulcer inhibition rate: it represents the inhibition effect of a drug on the ulcer index.

SMILES: COc1ccc2[nH]c([S+]([O-])Cc3ncc(C)c(OC)c3C)nc2c1 (centres unmarked) [Omeprazole, omeprazole]
- preventive effect on the recurrence of chronic gastric ulcers (inhibition rate) [1]: 50%
- Emax (% inhibition rate) [2]: 64.8 % inhibition rate
- ED50 ([3]; Rattus norvegicus, po, 168 h, rats, intragastric once a day for 7 days, ulcer inhibition rate, read-out: ED50 (median effective dose)): 1.3 mg/kg
- median effective dose ED50 for treating chronic gastric ulcers ([3]; chronic gastric ulcers, as stated in summary/description): 1.3 mg/kg/day
- Emax (maximum inhibition rate) ([3]; rats, intragastric once a day for 7 days): 66.2 ± 7.4%
